These results are taken from ChEMBL document CHEMBL5143714, “Discovery of BMS-986339, a Pharmacologically Differentiated Farnesoid X Receptor Agonist for the Treatment of Nonalcoholic Steatohepatitis” (J Med Chem, 2022).

pEC50, pIC50: −log10 of the molar value.

As usually defined, the pEC50 is the negative decadic logarithm of the EC50, by convention in mol/L. Higher therefore signals a low EC50. The term pIC50 denotes the IC50 on a negative log10 scale, so that one unit is a factor of ten. As a reminder, the Emax is the greatest response seen or fitted, relative to the assay's reference.

Series [1] concerns the target T1, Bile acid receptor (Homo sapiens, UniProt Q96RI1).
T1 sequence (Q96RI1 whole entry): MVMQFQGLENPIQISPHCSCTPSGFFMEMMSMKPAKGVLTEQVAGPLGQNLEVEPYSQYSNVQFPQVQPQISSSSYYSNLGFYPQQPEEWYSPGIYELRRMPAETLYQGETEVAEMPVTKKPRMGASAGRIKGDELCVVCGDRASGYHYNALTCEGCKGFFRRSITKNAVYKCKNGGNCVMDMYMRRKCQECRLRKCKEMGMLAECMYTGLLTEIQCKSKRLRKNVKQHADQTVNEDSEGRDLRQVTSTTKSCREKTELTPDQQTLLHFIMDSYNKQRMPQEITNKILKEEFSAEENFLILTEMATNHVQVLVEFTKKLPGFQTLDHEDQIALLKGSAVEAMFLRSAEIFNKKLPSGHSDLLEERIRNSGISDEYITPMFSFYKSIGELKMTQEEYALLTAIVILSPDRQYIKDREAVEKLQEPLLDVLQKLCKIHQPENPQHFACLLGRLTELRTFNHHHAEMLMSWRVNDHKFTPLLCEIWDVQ
Nature of the series: Agonist activity at Gal4-fused human FXR in HEK293 cells incubated for 15 min by luciferase reporter assay. It counts as cell-based. On the technique in general: Reporter assays use an easily measured gene product as a stand-in for the process of interest.

Series [2] can be described thus: Metabolic stability in human liver microsome assessed as parent compound remaining at […] measured after 10 mins. The note with it: liver microsomes, read-out: Stability. It counts as ADME.
Series [3] concerns the target Cytochrome P450 2C19 (Homo sapiens, UniProt P33261). Nature of the series: Inhibition of recombinant CYP2C19 (unknown origin) using fluorogenic substrate preincubated for 15 min followed by NADPH addition measured after 2 hrs by fluorescence method. It counts as ADME.
The target in series [4] is T2, Nuclear receptor subfamily 1 group I member 2 (Homo sapiens, UniProt O75469).
T2 sequence (O75469 whole entry): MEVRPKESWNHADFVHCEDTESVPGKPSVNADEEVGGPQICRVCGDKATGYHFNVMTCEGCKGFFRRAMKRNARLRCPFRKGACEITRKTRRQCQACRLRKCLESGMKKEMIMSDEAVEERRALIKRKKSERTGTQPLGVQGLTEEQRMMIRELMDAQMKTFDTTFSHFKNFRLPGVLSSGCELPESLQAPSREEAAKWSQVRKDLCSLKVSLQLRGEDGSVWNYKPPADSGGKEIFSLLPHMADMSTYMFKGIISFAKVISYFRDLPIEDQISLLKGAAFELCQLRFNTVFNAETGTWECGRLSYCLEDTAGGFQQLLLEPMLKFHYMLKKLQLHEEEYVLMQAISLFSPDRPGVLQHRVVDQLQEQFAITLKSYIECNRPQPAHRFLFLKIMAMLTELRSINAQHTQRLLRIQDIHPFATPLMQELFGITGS
Nature of the series: Transactivation of PXR (unknown origin) relative to refampicin. It counts as ADME.

Series [5] can be described thus: Metabolic stability in mouse liver microsome assessed as parent compound remaining at […] measured after 10 mins. In kind it is ADME. The note with it: liver microsomes, read-out: Stability.
Series [6] in a line: Metabolic stability in rat liver microsome assessed as parent compound remaining at […] measured after 10 mins. It counts as ADME. The conditions noted are these: liver microsomes, read-out: Stability. For orientation: Liver microsomes are a subcellular fraction often used to study metabolism.
The target of series [7] is Cytochrome P450 2C9 (Homo sapiens, UniProt P11712). As to the kind of experiment: Inhibition of recombinant CYP2C9 (unknown origin) using fluorogenic substrate preincubated for 15 min followed by NADPH addition measured after 2 hrs by fluorescence method. In kind it is ADME.
Chain of Cytochrome P450 2C9 (P11712 whole entry): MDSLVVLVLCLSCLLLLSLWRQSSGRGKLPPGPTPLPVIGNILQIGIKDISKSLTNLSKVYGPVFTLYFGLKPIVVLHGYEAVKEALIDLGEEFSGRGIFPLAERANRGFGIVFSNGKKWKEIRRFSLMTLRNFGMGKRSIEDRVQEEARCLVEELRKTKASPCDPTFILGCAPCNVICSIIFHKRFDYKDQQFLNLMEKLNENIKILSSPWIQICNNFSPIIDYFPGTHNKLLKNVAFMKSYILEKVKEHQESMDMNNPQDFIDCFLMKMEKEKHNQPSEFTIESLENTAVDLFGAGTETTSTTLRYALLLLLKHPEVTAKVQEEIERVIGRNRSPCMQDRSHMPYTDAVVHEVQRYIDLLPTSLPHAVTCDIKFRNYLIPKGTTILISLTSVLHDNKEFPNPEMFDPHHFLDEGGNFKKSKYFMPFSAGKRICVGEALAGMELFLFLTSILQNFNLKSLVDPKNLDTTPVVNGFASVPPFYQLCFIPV
For series [8], the target named is T2, Nuclear receptor subfamily 1 group I member 2. As to the kind of experiment: Transactivation of PXR (unknown origin). In kind it is ADME.
Series [9] can be described thus: Metabolic stability in mouse liver microsome assessed as parent compound remaining at 1 mg/mL measured after 10 mins. It counts as ADME. The conditions noted are these: liver microsomes, read-out: Stability.
Series [10] in a line: Metabolic stability in human liver microsome assessed as parent compound remaining at 1 mg/mL measured after 10 mins. In kind it is ADME. The note with it: liver microsomes, read-out: Stability.
A short description of series [11]: Metabolic stability in rat liver microsome assessed as parent compound remaining at 1 mg/mL measured after 10 mins. In kind it is ADME. The conditions noted are these: liver microsomes, read-out: Stability.

Chain of Cytochrome P450 2C19 (P33261 whole entry): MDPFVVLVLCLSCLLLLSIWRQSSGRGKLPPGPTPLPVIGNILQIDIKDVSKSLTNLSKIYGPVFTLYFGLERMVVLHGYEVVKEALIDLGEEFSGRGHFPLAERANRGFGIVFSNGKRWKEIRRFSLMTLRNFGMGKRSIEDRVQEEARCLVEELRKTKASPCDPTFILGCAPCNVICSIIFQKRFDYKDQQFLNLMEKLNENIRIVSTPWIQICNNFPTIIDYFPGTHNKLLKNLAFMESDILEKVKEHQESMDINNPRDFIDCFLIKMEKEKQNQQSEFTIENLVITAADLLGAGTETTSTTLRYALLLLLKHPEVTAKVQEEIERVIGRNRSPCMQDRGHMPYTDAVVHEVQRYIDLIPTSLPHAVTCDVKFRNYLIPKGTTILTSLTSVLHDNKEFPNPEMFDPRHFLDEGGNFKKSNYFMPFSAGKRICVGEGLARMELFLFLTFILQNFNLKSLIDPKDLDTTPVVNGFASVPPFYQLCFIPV

In [1], `COc1cccc(-c2cccc(N(CC34CCC(c5nc(C6CC6)no5)(CC3)CC4)C(=O)C3CCCCC3)c2)c1` showed a pEC50 of 7.04.
For the compound `O=C(C1CCCCC1)N(CC12CCC(c3nc(C4CC4)no3)(CC1)CC2)c1cccc(-c2nc(C3CC3)no2)c1`, the remaining at 10 min stood at 38% in series [2], 34% in [5] and 4% in series [6]. Besides, the pIC50 in series [3] and in series [7] was 4.70 in each case. In series [4], this compound had an Emax of 21%. For the same compound, the pEC50 in series [1] was 7.36; in series [8], 5.22.
With `O=C(C1CC(F)(F)C1)N(CC12CCC(c3nc(C4CC4)no3)(CC1)CC2)c1cccc(-c2nc(C3CC3)no2)c1`, the remaining at 10 min in series [2] came out at 98%; in series [5], 100%; in [6], 72%. The pIC50 is 4.77 in series [3] and 6.00 in series [7]. In series [4], this compound yielded an Emax of 62%. Further, the pEC50 in [8] was 6.00.
Consider `CCOc1ncc(-c2cccc(N(CC34CCC(c5noc(C(F)F)n5)(CC3)CC4)C(=O)C34CC(F)(C3)C4)c2)cn1`, for which the values for the remaining at 10 min in [2], in series [5] and in [6] were 88%, 84% and 64%, respectively. In addition, the pIC50 in [3] was 5.15; in [7] it was 5.70. In addition, in [4], the Emax was 28%. For the same compound, the values for the pEC50 in [1] and in [8] were 6.77 and 5.70, respectively.
For `CC(C)(C)c1nc(C23CCC(CN(C(=O)C45CC(F)(C4)C5)c4cccc(-c5nc(C6CC6)no5)c4)(CC2)CC3)no1`, the remaining at 10 min in series [2] came out at 97%; in series [5], 92%; in [6], 81%. Further, the pIC50 was 5.05 in [3] and 5.52 in series [7]. In [4], this compound registered an Emax of 19%. Further, the pEC50 was 7.54 in series [1] and 4.30 in series [8].
Regarding `CCOc1ncc(-c2cccc(N(CC34CCC(c5noc(C(C)(C)C)n5)(CC3)CC4)C(=O)[C@H]3C[C@@](C)(O)C3)c2)cn1`, the remaining at 10 min amounted to 64% in series [2], 84% in [5] and 44% in series [6]. Further, the pIC50 in [3] is 5.05; in [7], 6.00. The compound further yielded an Emax in series [4] of 37%. Moreover, the pEC50 in [8] is 5.82.
Take `CC(C)(C)c1nc(C23CCC(CN(C(=O)C45CC(F)(C4)C5)c4cccc(-c5nnc(C6CC6)o5)c4)(CC2)CC3)no1`: the remaining at 10 min in series [2] is 76%; in series [5] it was 52%; in series [6], 60%. The negative-log IC50 (pIC50) in series [3] was 6.00. In series [1], this compound had a pEC50 of 7.35.
With `O=C(C1CCC(F)(F)CC1)N(CC12CCC(c3nc(C4CC4)no3)(CC1)CC2)c1cccc(-c2nc(C3CC3)no2)c1`, the remaining at 10 min is 100% in series [2], 82% in series [5] and 23% in series [6]. Besides, the pIC50 in series [3] was 6.52; in [7], 4.70. The compound also came in with an Emax in series [4] of 35%. In addition, the pEC50 was 6.83 in [1] and 5.10 in series [8].
Take `CCOc1ccc(-c2cccc(N(CC34CCC(c5noc(C(C)(C)C)n5)(CC3)CC4)C(=O)C34CC(F)(C3)C4)c2)cn1`: the remaining at 10 min in [2] turned out to be 94%; in [5], 58%; in [6], 79%. Further, the pIC50 in series [3] is 5.10; in series [7], 5.70. Besides, in [4], the Emax was 9%. Moreover, the pEC50 in [8] is 4.30.
As for `CC(C)(C)c1noc(C23CCC(CN(C(=O)C45CC(F)(C4)C5)c4cccc(-c5nc(C6CC6)no5)c4)(CC2)CC3)n1`, the remaining at 10 min in series [2] was determined as 100%; in [5], 100%; in [6], 86%. Besides, the pIC50 in series [3] and in series [7] was 4.70 each time. The Emax in series [4] amounted to 11%. The pEC50 is 7.15 in series [1] and 4.30 in series [8].
For `CCOc1ncc(-c2cccc(N(CC34CCC(c5noc(C(C)(C)C)n5)(CC3)CC4)C(=O)[C@H]3C[C@](O)(C(F)(F)F)C3)c2)cn1`, the remaining at 10 min is 69% in [2], 86% in series [5] and 73% in series [6]. In addition, the pIC50 in series [3] was 5.00; in [7] it was 6.00. Further, in series [4], the Emax came out at 10%. Further, the pEC50 in series [1] is 6.82; in series [8], 4.30.
`COC(=O)/C=C/c1cccc(N(CC23CCC(c4ccc(C5CC5)cc4)(CC2)CC3)C(=O)C2CCCCC2)c1` showed a pEC50 in series [1] of 6.95.
Still for that read-out and setting: next, `COC(=O)/C=C/c1cccc(N(CC23CCC(c4ccc(N5CCOCC5)cc4)(CC2)CC3)C(=O)C2CCCCC2)c1`: 6.93.
With `CN1CCC(C(=O)N(CC23CCC(c4nc(C5CC5)no4)(CC2)CC3)c2cccc(-c3nc(C4CC4)no3)c2)CC1`, the remaining at 10 min in [2] is 98%; in series [5] it was 71%; in series [6] it was 37%. In addition, the pIC50 in series [3] was 4.89; in series [7], 4.70. Moreover, the Emax in [4] worked out at 11%. Moreover, the pEC50 in [1] is 5.79; in [8], 4.30.
With `O=C(C1CCOCC1)N(CC12CCC(c3nc(C4CC4)no3)(CC1)CC2)c1cccc(-c2nc(C3CC3)no2)c1`, the remaining at 10 min was 86% in [2], 8% in series [5] and 0% in series [6]. The pIC50 in series [3] is 4.70; in series [7], 6.00. Moreover, in series [1], the pEC50 was 6.94.
As to `CCOC(=O)c1nc(-c2cccc(N(CC34CCC(c5nc(C6CC6)no5)(CC3)CC4)C(=O)C3CCCCC3)c2)cs1`, in series [1], the pEC50 is 6.04.
As for `COC(=O)/C=C/c1cccc(N(CC23CCC(c4ccc(OC)cc4)(CC2)CC3)C(=O)C2CCCCC2)c1`, the results for the remaining at 10 min in [9] and in [10] were 35% and 60%, respectively. The same compound had a pEC50 in [1] of 6.85. For the same compound, the remaining at 10 min, 1 mg/mL in [11] amounted to 8%.
For the compound `CC(C)(O)c1ccc(-c2cccc(N(CC34CCC(c5noc(C(C)(C)F)n5)(CC3)CC4)C(=O)[C@H]3C[C@@](C)(O)C3)c2)cc1`, the figures for the remaining at 10 min in [2], in [5] and in [6] were 100%, 99% and 100%, respectively. For the same compound, the pIC50 in series [3] is 5.05; in series [7], 5.30. In series [4], this compound had an Emax of 13%. Also, the pEC50 is 7.60 in series [1] and 4.30 in [8].
Compound `COc1cc(-c2cccc(N(CC34CCC(c5nc(C6CC6)no5)(CC3)CC4)C(=O)C3CCCCC3)c2)ccn1` gave a negative logarithm of the EC50 (pEC50) in [1] of 7.02.
As to `CCOc1cc(-c2cccc(N(CC34CCC(c5nc(C6CC6)no5)(CC3)CC4)C(=O)C3CCCCC3)c2)no1`, the pEC50 in series [1] was 7.23.
The same measure, in the same setting: next, `COC(=O)/C=C/c1cccc(N(CC23CCC(c4ccc(N5CCCC5)cc4)(CC2)CC3)C(=O)C2CCCCC2)c1`: 6.52.
In the case of `O=C(N(CC12CCC(c3nc(C4CC4)no3)(CC1)CC2)c1cccc(-c2nc(C3CC3)no2)c1)C12CC(F)(C1)C2`, the remaining at 10 min was 100% in [2], 100% in [5] and 99% in [6]. Further, the pIC50 in series [3] and in series [7] was 5.70 in each case. The Emax in series [4] is 25%. In series [8], this compound showed a pEC50 of 6.00.
With `O=C(C1CCS(=O)(=O)CC1)N(CC12CCC(c3nc(C4CC4)no3)(CC1)CC2)c1cccc(-c2nc(C3CC3)no2)c1`, the remaining at 10 min was determined as 100% in [2], 100% in series [5] and 10% in series [6]. For the same compound, the pIC50 in series [3] and in [7] was 5.10 throughout. The Emax in [4] was 48%. Also, the pEC50 in series [1] was 5.96; in series [8], 5.40.
As to `CCOc1ncc(-c2cccc(N(CC34CCC(c5noc(C(C)(C)C)n5)(CC3)CC4)C(=O)C34CC(F)(C3)C4)c2)cn1`, the figures for the remaining at 10 min in [2], in series [5] and in [6] were 100%, 77% and 80%, respectively. For the same compound, the results for the negative-log IC50 (pIC50) in series [3] and in [7] were 5.22 and 6.00, respectively. Further, the Emax in series [4] was 9%. For the same compound, the values for the pEC50 in [1] and in series [8] were 7.39 and 4.30, respectively.
